# In PubChem BioAssay AID1963849 (Molecular Pharmacology Branch, DTP, NCI, 2024):
# Test system: 299254-011-R-J1-PDC complex spheroid viability
# Assay: Anticancer human tumor 299254-011-R-J1-PDC patient-derived melanoma cell line growth inhibition [POLQ]
# Details: for IC50: curve of first compound; for viability, T/C: stronger effect = lower value
# How it was run: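 Patient-derived tumour cells were co-cultured with HUVEC and mesenchymal stem cells as multicellular spheroids at 37 °C. They were treated with POLQ inhibitors (novobiocin, ART-558, RP6685) alone or combined with other agents. Top concentrations were at or near clinical Cmax (otherwise 10 microM; SN-38 at 1 microM), decreasing in half-log steps.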
# [1] = second compound 0.0316 µM, first compound 0.0316 µM
# [2] = second compound 0.0316 µM, first compound 0.1 µM
# [3] = second compound 0.1 µM, first compound 0.0316 µM
# [4] = second compound 0.1 µM, first compound 0.1 µM
# [5] = second compound 0.316 µM, first compound 0.0316 µM
# [6] = second compound 0.316 µM, first compound 0.1 µM
# [7] = second compound 1 µM, first compound 0.0316 µM
# [8] = second compound 1 µM, first compound 0.1 µM
# [9] = second compound 3.16 µM, first compound 0.0316 µM
# [10] = second compound 3.16 µM, first compound 0.1 µM
# [11] = second compound 10 µM, first compound 0.0316 µM
# [12] = second compound 10 µM, first compound 0.1 µM
# 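Also: spheroids exposed to drugs for one week before measurement.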
# 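For viability, T/C in this document: percent viability relative to DMSO vehicle control taken as 100%.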
smiles,measurement,setting,value
CC1COCCN1c1cc(C2(S(C)(=N)=O)CC2)nc(-c2ccnc3[nH]ccc23)n1 (centres undefined) + Nc1ccc(C#CCN(C(=O)Cc2ncc(C(F)(F)F)cc2C(F)(F)F)c2ccc(F)cc2)nn1,IC50,second compound 0.0316 µM,8.31 µM
same,IC50,second compound 0.1 µM,5.12 µM
same,IC50,second compound 0.316 µM,5.54 µM
same,IC50,second compound 1 µM,5.56 µM
same,IC50,second compound 3.16 µM,3.74 µM
same,IC50,second compound 10 µM,2.9 µM
same,"viability, T/C",[1],123%
same,"viability, T/C",[2],89.2%
same,"viability, T/C","second compound 0.0316 µM, first compound 0.316 µM",110%
same,"viability, T/C","second compound 0.0316 µM, first compound 1 µM",84.3%
same,"viability, T/C","second compound 0.0316 µM, first compound 3.16 µM",63.9%
same,"viability, T/C","second compound 0.0316 µM, first compound 10 µM",47%
same,"viability, T/C",[3],117%
same,"viability, T/C",[4],117%
same,"viability, T/C","second compound 0.1 µM, first compound 0.316 µM",100%
same,"viability, T/C","second compound 0.1 µM, first compound 1 µM",83.8%
same,"viability, T/C","second compound 0.1 µM, first compound 3.16 µM",56.3%
same,"viability, T/C","second compound 0.1 µM, first compound 10 µM",40.3%
same,"viability, T/C",[5],107%
same,"viability, T/C",[6],110%
same,"viability, T/C","second compound 0.316 µM, first compound 0.316 µM",87.3%
same,"viability, T/C","second compound 0.316 µM, first compound 1 µM",89.2%
same,"viability, T/C","second compound 0.316 µM, first compound 3.16 µM",63%
same,"viability, T/C","second compound 0.316 µM, first compound 10 µM",34.9%
same,"viability, T/C",[7],105%
same,"viability, T/C",[8],111%
same,"viability, T/C","second compound 1 µM, first compound 0.316 µM",94.4%
same,"viability, T/C","second compound 1 µM, first compound 1 µM",94.8%
same,"viability, T/C","second compound 1 µM, first compound 3.16 µM",59.1%
same,"viability, T/C","second compound 1 µM, first compound 10 µM",39.8%
same,"viability, T/C",[9],99%
same,"viability, T/C",[10],91.8%
same,"viability, T/C","second compound 3.16 µM, first compound 0.316 µM",102%
same,"viability, T/C","second compound 3.16 µM, first compound 1 µM",82.1%
same,"viability, T/C","second compound 3.16 µM, first compound 3.16 µM",53.2%
same,"viability, T/C","second compound 3.16 µM, first compound 10 µM",35.5%
same,"viability, T/C",[11],91.5%
same,"viability, T/C",[12],99.2%
same,"viability, T/C","second compound 10 µM, first compound 0.316 µM",84.8%
same,"viability, T/C","second compound 10 µM, first compound 1 µM",76%
same,"viability, T/C","second compound 10 µM, first compound 3.16 µM",46.7%
same,"viability, T/C","second compound 10 µM, first compound 10 µM",37.1%
Cn1ncnc1[C@H]1c2n[nH]c(=O)c3cc(F)cc(c23)N[C@@H]1c1ccc(F)cc1 + Nc1ccc(C#CCN(C(=O)Cc2ncc(C(F)(F)F)cc2C(F)(F)F)c2ccc(F)cc2)nn1,IC50,second compound 0.0316 µM,> 0.1 µM
same,IC50,second compound 0.1 µM,> 0.1 µM
same,IC50,second compound 0.316 µM,> 0.1 µM
same,IC50,second compound 1 µM,> 0.1 µM
same,IC50,second compound 3.16 µM,> 0.1 µM
same,IC50,second compound 10 µM,> 0.1 µM
same,"viability, T/C","second compound 0.0316 µM, first compound 0.000316 µM",107%
same,"viability, T/C","second compound 0.0316 µM, first compound 0.001 µM",101%
same,"viability, T/C","second compound 0.0316 µM, first compound 0.00316 µM",97.2%
same,"viability, T/C","second compound 0.0316 µM, first compound 0.01 µM",98.6%
same,"viability, T/C",[1],99.9%
same,"viability, T/C",[2],108%
same,"viability, T/C","second compound 0.1 µM, first compound 0.000316 µM",115%
same,"viability, T/C","second compound 0.1 µM, first compound 0.001 µM",94%
same,"viability, T/C","second compound 0.1 µM, first compound 0.00316 µM",111%
same,"viability, T/C","second compound 0.1 µM, first compound 0.01 µM",95.5%
same,"viability, T/C",[3],107%
same,"viability, T/C",[4],101%
same,"viability, T/C","second compound 0.316 µM, first compound 0.000316 µM",107%
same,"viability, T/C","second compound 0.316 µM, first compound 0.001 µM",113%
same,"viability, T/C","second compound 0.316 µM, first compound 0.00316 µM",95.1%
same,"viability, T/C","second compound 0.316 µM, first compound 0.01 µM",113%
same,"viability, T/C",[5],125%
same,"viability, T/C",[6],89.9%
same,"viability, T/C","second compound 1 µM, first compound 0.000316 µM",107%
same,"viability, T/C","second compound 1 µM, first compound 0.001 µM",106%
same,"viability, T/C","second compound 1 µM, first compound 0.00316 µM",102%
same,"viability, T/C","second compound 1 µM, first compound 0.01 µM",107%
same,"viability, T/C",[7],102%
same,"viability, T/C",[8],113%
same,"viability, T/C","second compound 3.16 µM, first compound 0.000316 µM",103%
same,"viability, T/C","second compound 3.16 µM, first compound 0.001 µM",103%
same,"viability, T/C","second compound 3.16 µM, first compound 0.00316 µM",94.4%
same,"viability, T/C","second compound 3.16 µM, first compound 0.01 µM",105%
same,"viability, T/C",[9],98.2%
same,"viability, T/C",[10],105%
same,"viability, T/C","second compound 10 µM, first compound 0.000316 µM",96.3%
same,"viability, T/C","second compound 10 µM, first compound 0.001 µM",93.3%
same,"viability, T/C","second compound 10 µM, first compound 0.00316 µM",88.1%
same,"viability, T/C","second compound 10 µM, first compound 0.01 µM",102%
same,"viability, T/C",[11],87.2%
same,"viability, T/C",[12],90.7%
